ChEMBL document CHEMBL1201862, “PubChem BioAssay data set” (2004)
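Growth conditions: 96-well plates. Treatment: test compound, 48 hours, 5 concentrations. Analysis: linear interpolation between bracketing concentrations; unreached endpoints set to highest concentration. Here, GI50 denotes the concentration required for 50% inhibition of growth.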 Activity calls are given as the source filed them. No stated cut-off is given here; in the data, active = GI50 up to about 1.1 µM and inactive = higher.

What was measured:
Test in all cases: DTP human tumour cell line panel, 48 h
A549 = tested on: A549
ACHN = tested on: ACHN
BT-549 = tested on: BT-549
CAKI-1 = tested on: CAKI-1
EKVX = tested on: EKVX
K562 = tested on: K562
M14 = tested on: M14
MCF7 = tested on: MCF7
MDA-N = tested on: MDA-N
Malme-3M = tested on: Malme-3M
NCI-H226 = tested on: NCI-H226
OVCAR-4 = tested on: OVCAR-4
OVCAR-8 = tested on: OVCAR-8
SF-268 = tested on: SF-268
SF-295 = tested on: SF-295
SNB-19 = tested on: SNB-19
SW-620 = tested on: SW-620
T47D = tested on: T47D
UACC-62 = tested on: UACC-62

Row | SMILES | GI50 (A549) | GI50 (ACHN) | GI50 (BT-549) | GI50 (CAKI-1) | GI50 (EKVX) | GI50 (K562) | GI50 (M14) | GI50 (MCF7) | GI50 (MDA-N) | GI50 (Malme-3M) | GI50 (NCI-H226) | GI50 (OVCAR-4) | GI50 (OVCAR-8) | GI50 (SF-268) | GI50 (SF-295) | GI50 (SNB-19) | GI50 (SW-620) | GI50 (T47D) | GI50 (UACC-62)
1 | C=CC1(C)CCC2C(=CCC3C2(C)CC(O)C(O)C3(C)COC2OC(CO)C(O)C(O)C2O)C1 (stereo not drawn) | > 100 µM (inactive) | > 100 µM (inactive) | > 100 µM (inactive) | > 100 µM (inactive) | > 100 µM (inactive) | > 100 µM (inactive) | > 100 µM (inactive) | > 100 µM (inactive) | > 100 µM (inactive) | > 100 µM (inactive) | > 100 µM (inactive) | > 100 µM (inactive) | > 100 µM (inactive) | > 100 µM (inactive) | > 100 µM (inactive) | 44.8 µM (inactive) | > 100 µM (inactive) | > 100 µM (inactive) | > 100 µM (inactive)
2 | COc1ccc(C(=O)/C=C/c2ccc(OCC#N)cc2)cc1OC | 29.1 µM (inactive) | 30.1 µM (inactive) | 15.5 µM (inactive) | 17.4 µM (inactive) | 14.9 µM (inactive) | 5.52 µM (inactive) | 16.4 µM (inactive) | 3.15 µM (inactive) | > 10 µM (inactive) | 20.9 µM (inactive) | 19.5 µM (inactive) | 40.7 µM (inactive) | 28 µM (inactive) | 26.6 µM (inactive) | > 10 µM (inactive) | 15.1 µM (inactive) | 7.16 µM (inactive) | 5.79 µM (inactive) | 16.7 µM (inactive)
3 | O=C(c1c2c(cc3c1CC1(Cc4cc5c(cc4C1)CCCC5)C3)CCCC2)C(Br)Br | 43.8 µM (inactive) | 13.4 µM (inactive) | 5.48 µM (inactive) | 11.3 µM (inactive) | 34.7 µM (inactive) | 4.31 µM (inactive) | 4.18 µM (inactive) | 7.67 µM (inactive) | 14.8 µM (inactive) | 3.53 µM (inactive) | 6.38 µM (inactive) | 12.4 µM (inactive) | 15 µM (inactive) | 14.6 µM (inactive) | 58.6 µM (inactive) | > 40.9 µM (inactive) | 5.48 µM (inactive) | 6.38 µM (inactive) | 14.9 µM (inactive)
4 | Cc1ccc2c(n1)C(=O)c1cc(C)c(C)cc1C2=O | 64.9 µM (inactive) | > 100 µM (inactive) | > 100 µM (inactive) | > 100 µM (inactive) | 50.8 µM (inactive) | 68.7 µM (inactive) | > 100 µM (inactive) | 67 µM (inactive) | > 100 µM (inactive) | 43.1 µM (inactive) | > 100 µM (inactive) | 70.3 µM (inactive) | 54.3 µM (inactive) | 49.8 µM (inactive) | > 100 µM (inactive) | > 100 µM (inactive) | 73.6 µM (inactive) | 49.5 µM (inactive) | 45.9 µM (inactive)
5 | COC(=O)C1=COC(OC2OC(CO)C(O)C(O)C2O)C2C3CN4CCc5c([nH]c6ccccc56)C4(CC12)O3 (stereo not drawn) | > 100 µM (inactive) | > 100 µM (inactive) | > 100 µM (inactive) | < 0.01 µM (active) | > 100 µM (inactive) | > 100 µM (inactive) | > 100 µM (inactive) | > 100 µM (inactive) | > 100 µM (inactive) | > 100 µM (inactive) | > 100 µM (inactive) | > 100 µM (inactive) | > 100 µM (inactive) | 31.9 µM (inactive) | > 100 µM (inactive) | > 100 µM (inactive) | > 100 µM (inactive) | > 100 µM (inactive) | > 100 µM (inactive)
6 | COC(=O)C1=C2Nc3ccccc3C23CCN2C(O)C4(CC5CC67CCOC6CCN6CCC8(c9cccc(OC)c9N(C4)C58O)C67)C4OCCC4(C1)C23 (stereo not drawn) | > 100 µM (inactive) | 86.5 µM (inactive) | > 100 µM (inactive) | 25.2 µM (inactive) | 52.8 µM (inactive) | > 100 µM (inactive) | 71.9 µM (inactive) | 47.2 µM (inactive) | 98.2 µM (inactive) | 56.4 µM (inactive) | 87.9 µM (inactive) | 61.9 µM (inactive) | 23.5 µM (inactive) | 26.1 µM (inactive) | 34.6 µM (inactive) | 45.7 µM (inactive) | 62.4 µM (inactive) | 20.3 µM (inactive) | > 100 µM (inactive)
7 | NS(=O)(=O)c1nnc(NC(=O)Nc2ccc(Cl)c(Cl)c2)s1 | 31 µM (inactive) | 34.2 µM (inactive) | 20 µM (inactive) | 25.9 µM (inactive) | 28.8 µM (inactive) | 31.3 µM (inactive) | 16.8 µM (inactive) | 26.9 µM (inactive) | 20.5 µM (inactive) | 17.6 µM (inactive) | 23.2 µM (inactive) | 30.6 µM (inactive) | 20.4 µM (inactive) | 24.7 µM (inactive) | 31.7 µM (inactive) | 21 µM (inactive) | 27.9 µM (inactive) | 19.9 µM (inactive) | 16.2 µM (inactive)
